Results as given in patent publication US20200237759A1, “DOSAGE REGIME AND METHOD FOR TREATING PULMONARY ARTERIAL HYPERTENSION” (Altavant Sciences GmbH, priority 2019, published 2020).

Experiment: Part 2 MAD plasma pharmacokinetics, BID oral KAR5585 for 14 days
Settings: for tmax: Median
[1] = 200 mg BID fed, Cohort 3, Day 1 PM, Geo. Mean
[2] = 200 mg BID fed, Cohort 3, Day 7 AM, Geo. Mean
[3] = 200 mg BID fed, Cohort 3, Day 7 AM, Mean
[4] = 200 mg BID fed, Cohort 3, Day 7 PM, Geo. Mean
[5] = 200 mg BID fed, Cohort 3, Day 7 PM, Mean
[6] = 200 mg BID fed, Cohort 3, Day 14 AM, Geo. Mean
[7] = 200 mg BID fed, Cohort 3, Day 14 AM, Mean
[8] = 400 mg BID fed, Cohort 4, Day 1 AM, Geo. Mean
[9] = 400 mg BID fed, Cohort 4, Day 1 PM, Geo. Mean
[10] = 400 mg BID fed, Cohort 4, Day 7 AM, Geo. Mean
[11] = 400 mg BID fed, Cohort 4, Day 7 PM, Geo. Mean
[12] = 400 mg BID fed, Cohort 4, Day 7 PM, Mean
[13] = 400 mg BID fed, Cohort 4, Day 14 AM, Geo. Mean
[14] = 400 mg BID fed, Cohort 4, Day 14 AM, Mean

Procedure: Food effect was to be evaluated in Part 1, Period 2.
Part 2 (MAD): BID doses (separated by approximately 12 hours on Days 1 to 13) and a single AM dose on Day 14. One or more of the MAD Cohort could have been dosed once daily (QD).
Pharmacokinetic data were to be summarized descriptively.

Question: With `Nc1nc(O[C@H](c2ccc(Cl)cc2-c2ccccc2)C(F)(F)F)cc(N2CCC3(CC2)CN[C@H](C(=O)O)C3)n1` [KAR5417, (S)-8-(2-amino-6-((R)-1-(5-chloro-[1,1′-biphenyl]-2-yl)-2,2,2-trifluoroeth-oxy)pyrimidin-4-yl)-2,8-diazaspiro[4.5]decane-3-carboxylic acid] as the molecule, how does the Cmax [1] read?
Answer: 307 ng/mL

Question: And the t1/2 [1]?
Answer: 5.95 h

Question: And the AUC0-12 (200 mg BID fed, Cohort 3, Day 1 PM, Mean)?
Answer: 2000 ng·h/mL

Question: What about the tmax (200 mg BID fed, Cohort 3, Day 1 PM) of the same molecule?
Answer: 4.0 h

Question: And the RCmax (200 mg BID fed, Cohort 3, Day 7 AM, Day 7/Day 1 accumulation ratio, Mean)?
Answer: 1.00

Question: What about the “AUC0-∞” value [2] of the same molecule?
Answer: 2610 ng·h/mL

Question: What about the Cmax [2] of the same molecule?
Answer: 332 ng/mL

Question: And the t1/2 [2]?
Answer: 4.57 h

Question: And the “AUC0-∞” value [3]?
Answer: 2800 ng·h/mL

Question: And the Cmax [3]?
Answer: 359 ng/mL

Question: And the t1/2 [3]?
Answer: 4.61 h

Question: What about the tmax (200 mg BID fed, Cohort 3, Day 7 AM) of the same molecule?
Answer: 4.0 h

Question: And the AUC0-12 [4]?
Answer: 1490 ng·h/mL

Question: And the AUC0-24 [4]?
Answer: 3620 ng·h/mL

Question: What about the “AUC0-∞” value [4] of the same molecule?
Answer: 2270 ng·h/mL

Question: And the Cmax [4]?
Answer: 212 ng/mL

Question: And the t1/2 [4]?
Answer: 6.48 h

Question: And the AUC0-12 [5]?
Answer: 1540 ng·h/mL

Question: What about the AUC0-24 [5] of the same molecule?
Answer: 3810 ng·h/mL

Question: And the “AUC0-∞” value [5]?
Answer: 2280 ng·h/mL

Question: And the Cmax [5]?
Answer: 222 ng/mL

Question: And the tmax (200 mg BID fed, Cohort 3, Day 7 PM)?
Answer: 8.0 h

Question: And the AUC0-12 [6]?
Answer: 1670 ng·h/mL

Question: What about the AUC0-24 [6] of the same molecule?
Answer: 2200 ng·h/mL

Question: And the t1/2 [6]?
Answer: 24.1 h

Question: And the AUC0-12 [7]?
Answer: 1820 ng·h/mL

Question: What about the AUC0-24 [7] of the same molecule?
Answer: 2380 ng·h/mL

Question: And the Cmax [7]?
Answer: 319 ng/mL

Question: What about the t1/2 [7] of the same molecule?
Answer: 25.0 h

Question: And the tmax (200 mg BID fed, Cohort 3, Day 14 AM)?
Answer: 3.0 h

Question: What about the “AUC0-∞” value [8] of the same molecule?
Answer: 3400 ng·h/mL

Question: What about the t1/2 [8] of the same molecule?
Answer: 3.71 h

Question: What about the “AUC0-∞” value (400 mg BID fed, Cohort 4, Day 1 AM, Mean) of the same molecule?
Answer: 3780 ng·h/mL

Question: And the tmax (400 mg BID fed, Cohort 4, Day 1 AM)?
Answer: 3.0 h

Question: What about the “AUC0-∞” value [9] of the same molecule?
Answer: 6860 ng·h/mL

Question: And the t1/2 [9]?
Answer: 5.3 h

Question: What about the tmax (400 mg BID fed, Cohort 4, Day 1 PM) of the same molecule?
Answer: 4.0 h

Question: And the RCmax (400 mg BID fed, Cohort 4, Day 7 AM, Day 7/Day 1 accumulation ratio, Mean)?
Answer: 2.00

Question: And the “AUC0-∞” value [10]?
Answer: 7480 ng·h/mL

Question: And the Cmax [10]?
Answer: 960 ng/mL

Question: And the t1/2 [10]?
Answer: 3.89 h

Question: What about the t1/2 (400 mg BID fed, Cohort 4, Day 7 AM, Mean) of the same molecule?
Answer: 3.94 h

Question: What about the tmax (400 mg BID fed, Cohort 4, Day 7 AM) of the same molecule?
Answer: 4.0 h

Question: What about the RAUC0-12 (400 mg BID fed, Cohort 4, Day 7 PM, Day 7/Day 1 accumulation ratio, Geo. Mean) of the same molecule?
Answer: 1.50

Question: What about the AUC0-12 [11] of the same molecule?
Answer: 4360 ng·h/mL

Question: And the “AUC0-∞” value [11]?
Answer: 6450 ng·h/mL

Question: What about the Cmax [11] of the same molecule?
Answer: 574 ng/mL

Question: What about the t1/2 [11] of the same molecule?
Answer: 5.08 h

Question: And the AUC0-12 [12]?
Answer: 4610 ng·h/mL

Question: What about the “AUC0-∞” value [12] of the same molecule?
Answer: 6520 ng·h/mL

Question: What about the Cmax [12] of the same molecule?
Answer: 608 ng/mL

Question: And the t1/2 [12]?
Answer: 5.10 h

Question: And the tmax (400 mg BID fed, Cohort 4, Day 7 PM)?
Answer: 6.0 h

Question: And the AUC0-12 [13]?
Answer: 4160 ng·h/mL

Question: What about the AUC0-24 [13] of the same molecule?
Answer: 5410 ng·h/mL

Question: What about the “AUC0-∞” value [13] of the same molecule?
Answer: 8120 ng·h/mL

Question: What about the Cmax [13] of the same molecule?
Answer: 717 ng/mL

Question: What about the t1/2 [13] of the same molecule?
Answer: 30.4 h

Question: And the AUC0-12 [14]?
Answer: 4350 ng·h/mL

Question: What about the Cmax [14] of the same molecule?
Answer: 749 ng/mL

Question: What about the t1/2 [14] of the same molecule?
Answer: 30.6 h

Question: And the tmax (400 mg BID fed, Cohort 4, Day 14 AM)?
Answer: 3.0 h

Question: And the “tmax Day 7 evening dose” value (400 mg KAR5585 BID, fed)?
Answer: 6 h

Question: What about the “study day by which steady-state plasma levels were achieved” value (BID oral KAR5585 for 14 days) of the same molecule?
Answer: ≤ 7 days
